Experimental data as given in patent EP1116715A1, “Tetramic acid derivatives useful in medicines and foodstuffs” (priority 2000, dated 2001).
≈ marks a conversion by molar mass, not a printed value.

Columns and labels:
Format in all cases: cell-based
Bakterien = assay: antibacterial activity of synthetic product compared with natural reutericyclin; details: relative to natural reutericyclin
From the text: (§1) Das Wirkungsspektrum von Reutericyclin wurde mit Hilfe des Naturstoffes untersucht, der aus Lactobacillus reuteri LTH 2584 wie oben beschrieben isoliert wurde. Die antimikrobielle Aktivität wurde gegenüber einer Vielzahl unterschiedlicher Bakterien getestet. Hierfür wurden Verdünnungstest auf Mikrotiterplatten durchgeführt. Kulturen der verschiedenen Bakterien wurden mit Verdünnungen der erfindungsgemässen Verbindung behandelt und die Konzentration bestimmt, die eine Hemmung des Wachstums der Bakterien im Vergleich mit Kontrollen beobachten ließ.
Dies liegt vermutlich daran, daß 6 im Gegensatz zum natürlichen Reutericyclin als Razemat vorliegt.

[1] = tested on: Lactobacillus sanfranciscensis (ATCC27651); assay: microtitre plate dilution test, minimal inhibitory concentration; details: natural product isolated from Lactobacillus reuteri LTH 2584; growth inhibition versus controls; read-out: minimale inhibitorische Konzentration
From the text: as §1
(§2) Diese sogenannte minimale inhibitorische Konzentration wurde für das Bakterium Lactobacillus sanfranciscensis (ATCC27651) mit 0,1 +/-0,05 mg/l bestimmt.

Hefen = assay: microtitre plate dilution test, growth inhibition; details: yeasts; at the tested concentrations
[2] = tested on: Enterococcus Faecalis (DSM20409); assay: microtitre plate dilution test, growth inhibition; details: natural product, read-out: Konzentration, die eine Hemmung des Wachstums der Bakterien bewirkte
From the text: as §1
(§3) Einige humanpathogene Keime, wie beispielsweise Enterococcus Faecalis (DSM20409) erwies sich sogar noch als deutlich empfindlicher gegenüber Reutericyclin. Hier bewirkte eine Konzentration von etwa 0,05 mg/l eine Hemmung des Wachstums der Bakterien. […] Es war also keine Kreuzresistenz festzustellen.

[3] = tested on: Staphylocokus aureus (SG511); assay: microtitre plate dilution test, growth inhibition; details: compared with Lactobacillus sanfranciscensis
From the text: as §1

[4] = tested on: Listeria ivanovii (DSM20750); assay: microtitre plate dilution test, growth inhibition; details: compared with Lactobacillus sanfranciscensis
From the text: as §1

Escherichia coli = assay: microtitre plate dilution test, growth inhibition; details: Gram-negative bacteria; at the tested concentrations
From the text: as §1

[5] = tested on: Antibiotika-resistente klinische Isolate (Enterococcus Faecalis); assay: microtitre plate dilution test, antibiotic-resistant clinical isolates; details: no cross-resistance found
From the text: as §1, §3

L. curvatus (LTH1174) = assay: microtitre plate dilution test, growth inhibition; details: compared with L. sanfranciscensis (MIC 0,1 +/-0,05 mg/l)
From the text: as §1, §2

L. sakei (LTH673) = assay: microtitre plate dilution test, growth inhibition; details: compared with L. sanfranciscensis (MIC 0,1 +/-0,05 mg/l)
From the text: as §1, §2

SMILES | Menge für gleiche Ergebnisse wie eine Menge des natürlichen Reutericyclins (Bakterien; as a rule) | antibakterielle Wirkung (Bakterien) | MIC [1] [µg/mL] | Empfindlichkeit gegenüber Reutericyclin (Hefen) | MIC [2] [µg/mL] | Empfindlichkeit gegenüber Reutericyclin [3] | Empfindlichkeit gegenüber Reutericyclin [4] | Empfindlichkeit gegenüber Reutericyclin (Escherichia coli) | Empfindlichkeit gegenüber Reutericyclin [5] | Empfindlichkeit gegenüber Reutericyclin (L. curvatus (LTH1174)) | Empfindlichkeit gegenüber Reutericyclin (L. sakei (LTH673))
CCCCCCC/C=C/C(=O)N1C(O)=C(C(C)=O)C(=O)C1CC(C)C (racemic) [compound 6, N-trans-2-Decenoyl-3-acetyl-5-iso-butylpyrrolidin-2,4-dion] | doppelte Mengen | etwas schwächer |  |  |  |  |  |  |  |  | 
CCCCCCC/C=C/C(=O)N1C(O)=C(C(C)=O)C(=O)[C@H]1CC(C)C [Reutericyclin, 5R-1-(2-trans-Decenoyl)-3-acetyl-5-isobutyl-delta2-pyrrolin4-on] |  |  | 0.1 (≈ 0.286 µM) | nicht empfindlich | ~0.05 (≈ 0.143 µM) | in einer entsprechenden Größenordnung wie Lactobacillus sanfranciscensis | in einer entsprechenden Größenordnung wie Lactobacillus sanfranciscensis | nicht empfindlich | ebenfalls eine Empfindlichkeit | sehr ähnliche Empfindlichkeiten | sehr ähnliche Empfindlichkeiten
